From patent US20170008888A1 (KYORIN PHARMACEUTICAL CO., LTD., priority 2014, published 2017)
Marks after values point to notes of the source that are not given here.

Assays:
[1] = target: T1, BRPF3 (Homo sapiens, UniProt Q9ULD4); assay: Bromodomain binding assay: BRPF3
T1 construct: T7 phage strains displaying bromodomains were grown in parallel; made in house; host or cells: E. coli host derived from BL21, infected with T7 phage
Experimental: (§1) T7 phage strains displaying bromodomains were grown in parallel in 24-well blocks in an E. coli host derived from the BL21 strain. E. coli were grown to log-phase and infected with T7 phage from a frozen stock (multiplicity of infection=0.4) and incubated with shaking at 32° C. until lysis (90-150 minutes). The lysates were centrifuged (5,000×g) and filtered (0.2 μm) to remove cell debris. […] The liganded beads were blocked with excess biotin and washed with blocking buffer (SeaBlock (Pierce), 1% BSA, 0.05 Tween 20, 1 mM DTT) to remove unbound ligand and to reduce non-specific phage binding. […] Test compounds (T62 and 46) were prepared as 1000× stocks in 100% DMSO and subsequently diluted 1:10 in monoethylene glycol (MEG) to create stocks at 100× the screening concentration (resulting stock solution is 10% DMSO/90% MEG). The compounds were then diluted directly into the assays such that the final concentration of DMSO and MEG were 0.1% and 0.9%, respectively. All reactions were performed in polystyrene 96-well plates in a final volume of 0.135 ml. […] The bromodomain concentration in the eluates was measured by qPCR. Compounds were assayed for binding activity against a panel of 40 bromodomain-containing proteins.

[2] = target: T2, PBRM1 (Homo sapiens, UniProt Q86U86); assay: Bromodomain binding assay: PBRM1
T2 construct: read out by qPCR of the phage DNA
T2 sequence (Q86U86 whole entry): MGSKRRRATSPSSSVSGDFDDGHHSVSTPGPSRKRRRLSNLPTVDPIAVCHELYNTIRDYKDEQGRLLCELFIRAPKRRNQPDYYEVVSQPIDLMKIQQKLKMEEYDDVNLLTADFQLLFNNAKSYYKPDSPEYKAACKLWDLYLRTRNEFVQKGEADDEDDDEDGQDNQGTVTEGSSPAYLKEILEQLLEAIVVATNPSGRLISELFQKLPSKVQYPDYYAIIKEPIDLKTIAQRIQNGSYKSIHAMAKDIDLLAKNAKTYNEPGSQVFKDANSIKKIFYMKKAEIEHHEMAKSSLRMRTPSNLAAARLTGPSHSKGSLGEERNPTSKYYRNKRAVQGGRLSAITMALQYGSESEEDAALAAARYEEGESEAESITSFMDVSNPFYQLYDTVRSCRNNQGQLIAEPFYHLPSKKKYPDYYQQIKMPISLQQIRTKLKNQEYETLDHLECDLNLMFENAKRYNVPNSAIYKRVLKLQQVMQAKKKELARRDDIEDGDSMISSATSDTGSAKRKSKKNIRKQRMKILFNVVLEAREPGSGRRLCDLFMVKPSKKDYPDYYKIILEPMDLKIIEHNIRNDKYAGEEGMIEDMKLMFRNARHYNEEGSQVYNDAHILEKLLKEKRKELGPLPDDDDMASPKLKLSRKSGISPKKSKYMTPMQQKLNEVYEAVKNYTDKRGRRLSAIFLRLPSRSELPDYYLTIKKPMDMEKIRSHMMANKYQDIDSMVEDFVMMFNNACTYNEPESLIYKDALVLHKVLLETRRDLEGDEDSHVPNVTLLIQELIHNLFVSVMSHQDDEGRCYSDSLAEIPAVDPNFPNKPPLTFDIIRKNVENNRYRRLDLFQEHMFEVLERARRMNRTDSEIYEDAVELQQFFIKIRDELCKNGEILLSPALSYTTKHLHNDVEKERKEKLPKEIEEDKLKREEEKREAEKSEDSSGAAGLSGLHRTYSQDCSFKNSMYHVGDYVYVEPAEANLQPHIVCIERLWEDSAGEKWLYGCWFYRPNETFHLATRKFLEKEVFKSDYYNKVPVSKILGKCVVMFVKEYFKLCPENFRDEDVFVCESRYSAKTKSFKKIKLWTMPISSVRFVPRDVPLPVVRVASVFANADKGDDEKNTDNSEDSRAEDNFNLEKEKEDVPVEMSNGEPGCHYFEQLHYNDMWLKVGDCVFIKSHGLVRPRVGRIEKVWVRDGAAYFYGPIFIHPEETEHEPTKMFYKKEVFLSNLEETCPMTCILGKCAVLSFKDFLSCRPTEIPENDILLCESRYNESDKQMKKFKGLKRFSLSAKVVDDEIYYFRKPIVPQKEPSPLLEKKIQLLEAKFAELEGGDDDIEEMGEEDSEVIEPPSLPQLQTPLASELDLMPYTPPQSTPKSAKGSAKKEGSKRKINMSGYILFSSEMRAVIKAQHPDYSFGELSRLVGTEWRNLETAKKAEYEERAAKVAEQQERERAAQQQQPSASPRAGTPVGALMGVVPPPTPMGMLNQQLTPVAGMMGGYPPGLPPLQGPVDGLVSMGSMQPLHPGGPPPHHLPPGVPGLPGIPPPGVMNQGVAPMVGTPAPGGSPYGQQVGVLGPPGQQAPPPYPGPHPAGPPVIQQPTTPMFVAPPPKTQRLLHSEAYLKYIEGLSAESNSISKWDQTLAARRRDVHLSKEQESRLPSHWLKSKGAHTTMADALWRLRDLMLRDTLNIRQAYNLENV
Experimental: as §1

[3] = target: T3, BRD1 (Homo sapiens, UniProt O95696); assay: Bromodomain binding assay: BRD1
T3 construct: T7 phage strains displaying bromodomains were grown in parallel; made in house; host or cells: E. coli host derived from BL21, infected with T7 phage
T3 sequence (O95696 562-666 limits assumed, species assumed): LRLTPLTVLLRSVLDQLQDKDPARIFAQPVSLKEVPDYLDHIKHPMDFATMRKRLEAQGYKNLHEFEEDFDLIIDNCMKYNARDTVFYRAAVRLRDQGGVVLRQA
Experimental: as §1

[4] = target: T4, BAZ2B (Homo sapiens, UniProt Q9UIF8); assay: Bromodomain binding assay: BAZ2B
T4 construct: T7 phage strains displaying bromodomains were grown in parallel; made in house; host or cells: E. coli host derived from BL21, infected with T7 phage
T4 sequence (Q9UIF8 2060-2164 limits assumed, species assumed): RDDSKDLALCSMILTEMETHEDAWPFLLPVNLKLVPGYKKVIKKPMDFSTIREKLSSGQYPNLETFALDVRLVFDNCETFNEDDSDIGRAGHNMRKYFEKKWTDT
Experimental: as §1

[5] = tested on: Imiquimod-induced psoriasis mouse model; assay: Imiquimod (IMQ)-induced acute model of psoriasis in mouse: skin thickness, erythema, scaling; assay type: in vivo, mouse (Balb/c)
Experimental: Material and methods for the IMQ study were adapted from van der Fits et al. J Immunol., 2009, 182: 5836-5845. Eight week old male Balb/c mice (Harlan) received a daily topical dose of 62.5 mg 5% IMQ cream (Aldara™, Medicis) equivalent to 3.125 mg IMQ, on the shaved back (approximately 2×3.5 cm patch) and dorsal surface of the right ear for 6 consecutive days. Sham control mice were treated similarly with control cream (Hydrous Emulsified Base, HEB, Cream, Fagron). Treatments were administered by group as indicated in Table 1 below prior to daily application of IMQ (QD and morning dose of BID regimens), n=10 for all groups. […] Body weights and scoring of induced clinical disease were performed after dosing (Days 1-7) but prior to IMQ application (Days 1-6) on Days 1 (baseline), 3, 4, 6, 8. Mice were sacrificed on Day 8 and treated back skin tissue collected and divided for fixation for histopathology (a 12 mm punch in mid-back) the remainder flash frozen; right (IMQ) and left (control) ears, spleen (after wet weight) and lung were also individually collected and flash frozen, and stored at −70° C. for subsequent biochemical analyses. Statistics were performed using one-way ANOVA with Dunnett's post-hoc test comparing treated groups to the vehicle group, using InStat software (GraphPad, La Jolla, Calif.).
The severity of clinical disease was assessed by
1) skin thickness dial gauge micrometer measurements (duplicate) of the ears and the dorsal skin at the midline of the back (equal to double true measure of dorsal skin thickness)
2) erythema and scaling, independently scored on a scale from 0-4: 0=none, 1=slight, 2=moderate, 3=marked, 4=very marked with intermediate increments of 0.5 allowed.
Clinical disease assessments included erythema, scaling, skin thickness and cumulative disease severity scores and the change in skin thickness of the ears and dorsal back skin over time compared to baseline measurements (Tables 19 and 20). Body weights of the mice were measured at baseline and at end of study, and there were no significant changes in weight in any treatment group during the study (data not shown).

[6] = target: T5, panel of 40 bromodomain-containing proteins (Homo sapiens, UniProt Q92793); assay: Bromodomain binding assay (T7 phage, qPCR): further proteins of the panel; conditions: CREBBP
T5 construct: T7 phage strains displaying bromodomains were grown in parallel; made in house; host or cells: E. coli host derived from BL21, infected with T7 phage
T5 sequence (Q92793 1081-1197): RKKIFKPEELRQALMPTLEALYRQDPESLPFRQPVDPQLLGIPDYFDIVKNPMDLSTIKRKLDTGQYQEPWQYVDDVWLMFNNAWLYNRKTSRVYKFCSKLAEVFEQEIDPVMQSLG
Experimental: as §1

[7] = target: T6, panel of 40 bromodomain-containing proteins (Homo sapiens, UniProt Q09472); assay: as above; conditions: EP300
T6 construct: T7 phage strains displaying bromodomains were grown in parallel; made in house; host or cells: E. coli host derived from BL21, infected with T7 phage
T6 sequence (Q09472 1045-1161): as the sequence (Q92793 1081-1197) above, with R1K, N51S, V77I, F97Y, A102S counted along it
Experimental: as §1

[8] = target: T7, BRD8 (Homo sapiens, UniProt Q9H0E9); assay: Bromodomain binding assay: BRD8
T7 construct: read out by qPCR of the phage DNA
T7 sequence (Q9H0E9 whole entry): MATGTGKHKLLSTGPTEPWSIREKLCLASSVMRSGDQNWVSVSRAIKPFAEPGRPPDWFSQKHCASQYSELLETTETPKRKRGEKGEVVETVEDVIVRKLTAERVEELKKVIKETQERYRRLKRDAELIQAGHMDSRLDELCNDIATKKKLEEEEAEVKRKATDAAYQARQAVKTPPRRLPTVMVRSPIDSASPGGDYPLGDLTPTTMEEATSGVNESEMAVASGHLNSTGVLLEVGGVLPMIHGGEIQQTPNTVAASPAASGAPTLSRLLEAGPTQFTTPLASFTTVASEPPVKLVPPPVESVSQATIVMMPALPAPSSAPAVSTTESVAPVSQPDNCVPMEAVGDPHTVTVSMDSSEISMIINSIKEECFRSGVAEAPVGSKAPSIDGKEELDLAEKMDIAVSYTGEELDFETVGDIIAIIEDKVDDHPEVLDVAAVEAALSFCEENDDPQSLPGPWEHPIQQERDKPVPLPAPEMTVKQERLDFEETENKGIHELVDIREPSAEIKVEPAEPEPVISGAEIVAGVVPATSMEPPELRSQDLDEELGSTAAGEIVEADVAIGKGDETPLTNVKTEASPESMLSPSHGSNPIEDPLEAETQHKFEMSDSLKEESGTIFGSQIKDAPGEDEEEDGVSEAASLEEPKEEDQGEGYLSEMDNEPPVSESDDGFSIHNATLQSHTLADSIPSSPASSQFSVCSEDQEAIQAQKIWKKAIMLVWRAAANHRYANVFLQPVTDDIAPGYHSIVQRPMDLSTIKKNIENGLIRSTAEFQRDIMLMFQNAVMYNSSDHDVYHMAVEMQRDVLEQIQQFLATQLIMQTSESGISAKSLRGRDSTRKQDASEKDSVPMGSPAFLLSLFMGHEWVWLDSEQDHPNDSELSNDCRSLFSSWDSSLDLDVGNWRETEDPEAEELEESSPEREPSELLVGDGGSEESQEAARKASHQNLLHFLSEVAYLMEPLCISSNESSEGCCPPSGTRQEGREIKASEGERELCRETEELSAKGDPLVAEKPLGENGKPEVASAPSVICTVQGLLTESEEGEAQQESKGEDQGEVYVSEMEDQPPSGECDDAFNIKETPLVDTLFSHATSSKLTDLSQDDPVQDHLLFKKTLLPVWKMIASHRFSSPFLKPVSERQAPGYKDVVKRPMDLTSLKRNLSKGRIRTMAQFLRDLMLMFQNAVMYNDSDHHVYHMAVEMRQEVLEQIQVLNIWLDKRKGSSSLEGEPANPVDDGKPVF
Experimental: as §1

[9] = target: T8, GCN5L2 (Homo sapiens, UniProt Q92830); assay: Bromodomain binding assay: GCN5L2
T8 construct: made in house; host or cells: E. coli host derived from the BL21 strain (T7 phage lysate)
T8 sequence (Q92830 728-832 limits assumed): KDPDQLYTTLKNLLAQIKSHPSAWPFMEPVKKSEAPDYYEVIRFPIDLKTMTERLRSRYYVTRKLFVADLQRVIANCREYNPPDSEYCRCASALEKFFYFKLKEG
Experimental: as §1

T1 sequence (Q9ULD4 589-693 limits assumed, species assumed): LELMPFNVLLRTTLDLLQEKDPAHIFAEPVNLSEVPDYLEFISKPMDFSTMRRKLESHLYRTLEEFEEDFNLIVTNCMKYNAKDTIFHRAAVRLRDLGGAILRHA

CCOc1cc(C(=O)N2CCC(N3CCCC3)CC2)ccc1Nc1cc2c(cn1)N(C)C(=O)c1ccccc1N2C [Compound 46, 3-(2-Ethoxy-4-(4-(pyrrolidin-1-yl)piperidine-1-carbonyl)phenylamino)-5,11-dimethyl-5H-benzo[e]pyrido[3,4-b][1,4]diazepin-10(11H)-one]
Kd [1]: > 20 µM
Kd [2]: > 20 µM
Kd [3]: > 20 µM
Kd [4]: > 20 µM
Clinical Score Erythema (0-4), AVG Score ([5]; Day 1 (baseline), 60 mpk BID): 0
Clinical Score Scaling (0-4), AVG Score ([5]; Day 1 (baseline), 60 mpk BID): 0
Clinical Score Erythema (0-4), AVG Score ([5]; Day 1 (baseline), 60 mpk QD): 0
Clinical Score Scaling (0-4), AVG Score ([5]; Day 1 (baseline), 60 mpk QD): 0
% Mean DORSAL BACK THICKNESS versus day 1, AVG ([5]; Day 3, 25 mpk BID): 29.55%
% Mean LEFT EAR THICKNESS [Control] versus day 1, AVG ([5]; Day 3, 25 mpk BID): −7.42%
% Mean RIGHT EAR THICKNESS [IMQ] versus day 1, AVG ([5]; Day 3, 25 mpk BID): 6.71%
% Mean DORSAL BACK THICKNESS versus day 1, AVG ([5]; Day 3, 60 mpk BID): 34.79%
% Mean LEFT EAR THICKNESS [Control] versus day 1, AVG ([5]; Day 3, 60 mpk BID): −8.07%
% Mean RIGHT EAR THICKNESS [IMQ] versus day 1, AVG ([5]; Day 3, 60 mpk BID): 3.35%
Clinical Score Erythema (0-4), AVG Score ([5]; Day 3, 60 mpk BID): 1.15
Clinical Score Scaling (0-4), AVG Score ([5]; Day 3, 60 mpk BID): 0.5
% Mean DORSAL BACK THICKNESS versus day 1, AVG ([5]; Day 3, 60 mpk QD): 41.12%
% Mean LEFT EAR THICKNESS [Control] versus day 1, AVG ([5]; Day 3, 60 mpk QD): −8.74%
% Mean RIGHT EAR THICKNESS [IMQ] versus day 1, AVG ([5]; Day 3, 60 mpk QD): 3.71%
Clinical Score Erythema (0-4), AVG Score ([5]; Day 3, 60 mpk QD): 1.05
Clinical Score Scaling (0-4), AVG Score ([5]; Day 3, 60 mpk QD): 0.5
% Mean DORSAL BACK THICKNESS versus day 1, AVG ([5]; Day 4, 25 mpk BID): 43.62%
% Mean LEFT EAR THICKNESS [Control] versus day 1, AVG ([5]; Day 4, 25 mpk BID): −5.56%
% Mean RIGHT EAR THICKNESS [IMQ] versus day 1, AVG ([5]; Day 4, 25 mpk BID): 12.03%
% Mean DORSAL BACK THICKNESS versus day 1, AVG ([5]; Day 4, 60 mpk BID): 45.39%
% Mean LEFT EAR THICKNESS [Control] versus day 1, AVG ([5]; Day 4, 60 mpk BID): −3.95%
% Mean RIGHT EAR THICKNESS [IMQ] versus day 1, AVG ([5]; Day 4, 60 mpk BID): 11.25%
Clinical Score Erythema (0-4), AVG Score ([5]; Day 4, 60 mpk BID): 1.3
Clinical Score Scaling (0-4), AVG Score ([5]; Day 4, 60 mpk BID): 0.55
% Mean DORSAL BACK THICKNESS versus day 1, AVG ([5]; Day 4, 60 mpk QD): 54.57%
% Mean LEFT EAR THICKNESS [Control] versus day 1, AVG ([5]; Day 4, 60 mpk QD): −7.01%
% Mean RIGHT EAR THICKNESS [IMQ] versus day 1, AVG ([5]; Day 4, 60 mpk QD): 9.53%
Clinical Score Erythema (0-4), AVG Score ([5]; Day 4, 60 mpk QD): 1.3
Clinical Score Scaling (0-4), AVG Score ([5]; Day 4, 60 mpk QD): 0.6
% Mean DORSAL BACK THICKNESS versus day 1, AVG ([5]; Day 6, 25 mpk BID): 84.46* %
% Mean LEFT EAR THICKNESS [Control] versus day 1, AVG ([5]; Day 6, 25 mpk BID): −1.35%
% Mean RIGHT EAR THICKNESS [IMQ] versus day 1, AVG ([5]; Day 6, 25 mpk BID): 37.60* %
% Mean DORSAL BACK THICKNESS versus day 1, AVG ([5]; Day 6, 60 mpk BID): 72.41** %
% Mean LEFT EAR THICKNESS [Control] versus day 1, AVG ([5]; Day 6, 60 mpk BID): 1.37%
% Mean RIGHT EAR THICKNESS [IMQ] versus day 1, AVG ([5]; Day 6, 60 mpk BID): 33.34** %
Clinical Score Erythema (0-4), AVG Score ([5]; Day 6, 60 mpk BID): 1.65
Clinical Score Scaling (0-4), AVG Score ([5]; Day 6, 60 mpk BID): 2.55
% Mean DORSAL BACK THICKNESS versus day 1, AVG ([5]; Day 6, 60 mpk QD): 90.77^NS %
% Mean LEFT EAR THICKNESS [Control] versus day 1, AVG ([5]; Day 6, 60 mpk QD): 8.65%
% Mean RIGHT EAR THICKNESS [IMQ] versus day 1, AVG ([5]; Day 6, 60 mpk QD): 38.11* %
Clinical Score Erythema (0-4), AVG Score ([5]; Day 6, 60 mpk QD): 2.25
Clinical Score Scaling (0-4), AVG Score ([5]; Day 6, 60 mpk QD): 3.05
% Mean DORSAL BACK THICKNESS versus day 1, AVG ([5]; Day 8, 25 mpk BID): 46.07^NS %
% Mean LEFT EAR THICKNESS [Control] versus day 1, AVG ([5]; Day 8, 25 mpk BID): −3.26%
% Mean RIGHT EAR THICKNESS [IMQ] versus day 1, AVG ([5]; Day 8, 25 mpk BID): 43.36** %
% Mean DORSAL BACK THICKNESS versus day 1, AVG ([5]; Day 8, 60 mpk BID): 41.36^NS %
% Mean LEFT EAR THICKNESS [Control] versus day 1, AVG ([5]; Day 8, 60 mpk BID): −1.92%
% Mean RIGHT EAR THICKNESS [IMQ] versus day 1, AVG ([5]; Day 8, 60 mpk BID): 40.66** %
Clinical Score Erythema (0-4), AVG Score ([5]; Day 8, 60 mpk BID): 1.3
Clinical Score Scaling (0-4), AVG Score ([5]; Day 8, 60 mpk BID): 1.45
% Mean DORSAL BACK THICKNESS versus day 1, AVG ([5]; Day 8, 60 mpk QD): 45.99^NS %
% Mean LEFT EAR THICKNESS [Control] versus day 1, AVG ([5]; Day 8, 60 mpk QD): 0.14%
% Mean RIGHT EAR THICKNESS [IMQ] versus day 1, AVG ([5]; Day 8, 60 mpk QD): 48.04** %
Clinical Score Erythema (0-4), AVG Score ([5]; Day 8, 60 mpk QD): 1.1
Clinical Score Scaling (0-4), AVG Score ([5]; Day 8, 60 mpk QD): 1.7
Kd [6]: 3300 nM
Kd [7]: 7500 nM
Kd [8]: > 20 µM
Kd [9]: > 20 µM

CCOc1cc(C(=O)N[C@H]2CC[C@H](O)CC2)ccc1Nc1cc2c(cn1)N(C)C(=O)c1ccccc1N2C [Compound T62]
Kd [1]: > 20 µM
Kd [2]: > 20 µM
Kd [3]: > 20 µM
Kd [4]: > 20 µM
Kd [6]: 1200 nM
Kd [7]: 1100 nM
Kd [8]: > 20 µM
Kd [9]: > 20 µM
